This is an account of results in ChEMBL document CHEMBL1201862, “PubChem BioAssay data set” (2004).

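Compound exposure: 48 hours, 5 concentrations, 96-well plates. GI50 marks 50% less growth.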 Calls of active or inactive are those of the source. No stated cut-off is given here; in the data, active = GI50 up to about 1.1 µM and inactive = higher.

Some test systems named below: SW-620; Malme-3M; HT-29; MOLT-4; A549; SK-OV-3; KM12; CAKI-1; SK-MEL-5; OVCAR-8; SF-295; HOP-62; HCT-15; IGROV-1; M14; RPMI-8226; HCC 2998; SK-MEL-2; HOP-92.
Common to all, as to assay: NCI anticancer screen, dose series, 48 h

`CN1CN(c2ccccc2)C2(CCN(CC(C)(c3ccc(F)cc3)C3OCCCO3)CC2)C1=O` (stereo not drawn): the GI50 in the test with SW-620 is 20.6 µM (inactive); in the test on Malme-3M it was 15.6 µM (inactive); with HT-29, 10.6 µM (inactive); with MOLT-4, 9.71 µM (inactive); in the test with A549 it was 25.9 µM (inactive); with SK-OV-3, 26.4 µM (inactive). In addition, the GI50 in the test on KM12 is 15.5 µM (inactive); with CAKI-1, 19.7 µM (inactive); in the test on SK-MEL-5, 15.7 µM (inactive); with OVCAR-8 it was 19.4 µM (inactive); in the test with SF-295 it was 18.4 µM (inactive); in the test on HOP-62, 16.6 µM (inactive). In addition, the GI50 with HCT-15 is 15.3 µM; with IGROV-1 it was 18.5 µM (inactive); with M14 it was 16.9 µM (inactive); in the test with RPMI-8226 it was 10.2 µM (inactive).
On to `CCOC(=O)[C@]12C(=C(c3ccccc3)O[C@H]3C=CCC[C@H]31)C(=O)C(=O)N2c1ccccc1`, for which the GI50 with Malme-3M is 65.5 µM (inactive); with HT-29, 60 µM (inactive); in the test with HCC 2998, > 100 µM (inactive); in the test with MOLT-4, 21.4 µM (inactive); in the test with A549 it was > 100 µM (inactive); in the test with SK-OV-3, > 100 µM (inactive). The GI50 in the test on SK-MEL-2 is > 100 µM (inactive); with KM12 it was 37.7 µM (inactive); with CAKI-1, > 100 µM (inactive); with SK-MEL-5, 93.8 µM (inactive); in the test on OVCAR-8, 65.2 µM (inactive); with SF-295, 98.4 µM (inactive). Also, the GI50 in the test on HOP-62 was > 100 µM (inactive); in the test with HCT-15 it was above 100 µM; in the test on M14, > 100 µM (inactive); in the test with RPMI-8226 it was 19.8 µM (inactive).
With `CCN1CN(c2ccccc2)C2(CCN(CCCSc3ccc(F)cc3)CC2)C1=O`, the GI50 was 7.29 µM (inactive) in the test with SW-620; 19.9 µM (inactive) with Malme-3M; 3.36 µM (inactive) in the test on HT-29; 4.88 µM (inactive) in the test on MOLT-4; 6.12 µM (inactive) with A549; 15.8 µM (inactive) with SK-OV-3. Moreover, the GI50 with KM12 is 14.3 µM (inactive); with CAKI-1, 12 µM (inactive); in the test on SK-MEL-5 it was 2.82 µM (inactive); with OVCAR-8, 14.8 µM (inactive); in the test with SF-295, 13 µM (inactive); with HOP-62 it was 4.31 µM (inactive). For the same compound, the GI50 in the test on HCT-15 was 11 µM; with IGROV-1, 5.3 µM (inactive); in the test with M14, 6.75 µM (inactive); in the test with RPMI-8226, 10.1 µM (inactive).
With `O=Cc1ccc2c(c1I)OCO2`, the GI50 in the test on SW-620, in the test with Malme-3M, in the test with HT-29, in the test on HCC 2998, in the test on MOLT-4 and in the test on A549 was > 100 µM (inactive) each time. Further, the GI50 in the test with SK-OV-3, with SK-MEL-2, in the test on KM12, in the test with CAKI-1, with SK-MEL-5 and in the test with OVCAR-8 was > 100 µM (inactive) in each case. Moreover, the GI50 with SF-295 was > 100 µM (inactive); with HOP-62, > 100 µM (inactive); in the test with HCT-15, above 100 µM; in the test on IGROV-1 it was > 100 µM (inactive); in the test on M14 it was > 100 µM (inactive); in the test on RPMI-8226, > 100 µM (inactive).
On to `O=[N+]([O-])c1ccc(-c2noc(-c3ccc(Cl)cc3)c2C2=NCCN2)cc1`, for which the GI50 in the test on SW-620, in the test with Malme-3M, in the test with HT-29, in the test on HCC 2998, with MOLT-4 and with A549 was > 100 µM (inactive) in each case. Further, the GI50 with SK-MEL-2, in the test on KM12, with CAKI-1, in the test with SK-MEL-5, in the test on OVCAR-8 and with SF-295 was > 100 µM (inactive) throughout. Moreover, the GI50 in the test on HOP-62 was > 100 µM (inactive); in the test with HCT-15, above 100 µM; in the test on IGROV-1 it was > 100 µM (inactive); with M14, > 100 µM (inactive); in the test with RPMI-8226, > 100 µM (inactive).
On to `Cc1ccc2sc3cc(=O)cc(C)c-3nc2c1`, for which the GI50 in the test on SW-620 was > 100 µM (inactive); with HT-29, > 100 µM (inactive); with HCC 2998 it was 50.4 µM (inactive); in the test on MOLT-4, 15.7 µM (inactive); in the test with HOP-92 it was > 100 µM (inactive); with A549 it was 36.7 µM (inactive). Besides, the GI50 is > 100 µM (inactive) in the test on SK-OV-3; > 100 µM (inactive) in the test on SK-MEL-2; 49.7 µM (inactive) with KM12; 28.5 µM (inactive) in the test on CAKI-1; 16.6 µM (inactive) in the test on SK-MEL-5; 37.9 µM (inactive) with OVCAR-8. The GI50 in the test on SF-295 is 33.1 µM (inactive); in the test with HOP-62, 65 µM (inactive); with HCT-15, 40.2 µM; in the test on IGROV-1, > 100 µM (inactive); in the test on M14 it was > 100 µM (inactive).
For the compound `CC(=O)Nc1ccc(S(=O)(=O)N/N=C/c2cc(I)cc([N+](=O)[O-])c2O)cc1`, the GI50 in the test with SW-620 is > 100 µM (inactive); with Malme-3M, 46.3 µM (inactive); in the test on HT-29, > 100 µM (inactive); with HCC 2998, > 100 µM (inactive); with MOLT-4, 32.7 µM (inactive); in the test with A549 it was > 100 µM (inactive). Also, the GI50 in the test with SK-OV-3 is 85.3 µM (inactive); in the test with SK-MEL-2, 41.9 µM (inactive); in the test with KM12 it was > 100 µM (inactive); in the test with CAKI-1 it was 81.5 µM (inactive); in the test on SK-MEL-5, 44 µM (inactive); with OVCAR-8, > 100 µM (inactive). In addition, the GI50 with SF-295 is > 100 µM (inactive); in the test on HCT-15 it was 75.5 µM; in the test with IGROV-1 it was > 100 µM (inactive); in the test with M14 it was 46.6 µM (inactive); in the test with RPMI-8226, 36.6 µM (inactive).
Regarding `Cc1cccc(-c2nc3c(C(=O)NCCN(C)C)cccc3[nH]2)c1`, the GI50 with SW-620 was 0.352 µM (active); with HT-29 it was 0.52 µM (active); in the test with HCC 2998 it was 1 µM (active); with MOLT-4, 0.406 µM (active); in the test on HOP-92, 1.28 µM (inactive); in the test on A549, 1.1 µM (active). Also, the GI50 with SK-OV-3 was 1.49 µM (inactive); in the test on SK-MEL-2, 1.86 µM (inactive); in the test on KM12, 0.944 µM (active); in the test with CAKI-1, 2.23 µM (inactive); in the test on SK-MEL-5, 1.65 µM (inactive); with OVCAR-8, 0.708 µM (active). The GI50 is 1.1 µM (active) in the test on SF-295; 1.72 µM (inactive) in the test with HOP-62; 0.414 µM in the test with HCT-15; 0.83 µM (active) in the test with IGROV-1; 1.63 µM (inactive) in the test with M14; 3.12 µM (inactive) with RPMI-8226.
Take `COC(=O)CCC(=O)N1Cc2cc(C)ccc2N(C(=O)CCC(=O)OC)Cc2cc(C)ccc21`: the GI50 in the test with SW-620, in the test on HT-29, with MOLT-4, in the test on HOP-92, in the test with A549 and with SK-OV-3 was > 100 µM (inactive) each time. Moreover, the GI50 in the test on SK-MEL-2, in the test with KM12, with CAKI-1, in the test with SK-MEL-5, in the test with OVCAR-8 and in the test with SF-295 was > 100 µM (inactive) each time. The GI50 is > 100 µM (inactive) with HOP-62; above 100 µM in the test on HCT-15; > 100 µM (inactive) in the test with IGROV-1; > 100 µM (inactive) in the test on M14; > 100 µM (inactive) in the test with RPMI-8226.
On to `c1ccc(P(=C2c3ccccc3-c3ccccc32)(c2ccccc2)c2ccccc2)cc1`, for which the GI50 in the test on SW-620 was 3.37 µM (inactive); in the test on Malme-3M it was 3.08 µM (inactive); with HT-29, 2.99 µM (inactive); with HCC 2998 it was 3.63 µM (inactive); in the test with HOP-92 it was 2.75 µM (inactive); in the test with A549 it was 7 µM (inactive). In addition, the GI50 was 20.7 µM (inactive) in the test on SK-OV-3; 5.35 µM (inactive) in the test on SK-MEL-2; 2.24 µM (inactive) in the test with KM12; 6.41 µM (inactive) in the test on CAKI-1; 2.17 µM (inactive) in the test on SK-MEL-5; 3.04 µM (inactive) with OVCAR-8. The GI50 in the test on SF-295 is 2.94 µM (inactive); in the test with HOP-62 it was 1.69 µM (inactive); in the test on HCT-15, 5.02 µM; in the test with IGROV-1 it was 6.7 µM (inactive); in the test with M14, 8.34 µM (inactive).
Regarding `Cc1nn(-c2ccccc2)c2nc3c(c(C)nn3-c3ccccc3)c(-c3ccc(C(F)(F)F)cc3)c12`, the GI50 was > 100 µM (inactive) in the test with SW-620; 52.8 µM (inactive) with HT-29; > 100 µM (inactive) in the test with HCC 2998; > 100 µM (inactive) in the test on MOLT-4; > 100 µM (inactive) in the test on HOP-92; > 100 µM (inactive) with A549. For the same compound, the GI50 in the test with SK-OV-3, with KM12, in the test on CAKI-1, in the test on SK-MEL-5, with OVCAR-8 and with SF-295 was > 100 µM (inactive) in each case. Further, the GI50 with HOP-62 was > 100 µM (inactive); in the test on HCT-15, above 100 µM; with M14, > 100 µM (inactive); in the test on RPMI-8226, > 100 µM (inactive).
Take `CS(=O)(=O)OCCCOS(C)(=O)=O`: the GI50 in the test on SW-620, in the test on Malme-3M, in the test on HT-29, with HCC 2998, in the test with MOLT-4 and with HOP-92 was > 100 µM (inactive) in each case. The GI50 in the test on A549, with SK-OV-3, with SK-MEL-2, with KM12, in the test with SK-MEL-5 and with OVCAR-8 was > 100 µM (inactive) in each case. The GI50 is > 100 µM (inactive) in the test on SF-295; > 100 µM (inactive) in the test on HOP-62; above 100 µM with HCT-15; > 100 µM (inactive) in the test on IGROV-1; > 100 µM (inactive) with M14; > 100 µM (inactive) in the test on RPMI-8226.
